Assay results published in patent US7585895B2, “Therapeutic substituted cyclopentanes” (Allergan, Inc., priority 2005, dated 2009).

Key:
Type in all cases: cell-based
hEP1 = biological target: T1, hEP1 (Homo sapiens, UniProt P34995); experiment: FLIPR calcium signal, EP1; conditions: HEK-293(EBNA)
T1 construct: expressed in transfected cells
T1 sequence (P34995 1-402): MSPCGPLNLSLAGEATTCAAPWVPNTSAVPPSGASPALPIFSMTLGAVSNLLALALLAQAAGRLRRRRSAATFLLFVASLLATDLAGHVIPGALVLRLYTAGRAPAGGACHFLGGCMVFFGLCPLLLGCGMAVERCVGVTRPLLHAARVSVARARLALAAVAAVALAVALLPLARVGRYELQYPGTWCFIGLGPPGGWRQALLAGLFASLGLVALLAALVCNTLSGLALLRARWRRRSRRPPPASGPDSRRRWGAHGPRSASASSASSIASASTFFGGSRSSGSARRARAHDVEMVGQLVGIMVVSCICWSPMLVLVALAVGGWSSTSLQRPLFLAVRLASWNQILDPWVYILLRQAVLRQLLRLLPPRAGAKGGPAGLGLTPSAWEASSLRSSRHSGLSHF
Protocol: (§1) HEK-293(EBNA) cells, stably expressing one type or subtype of recombinant human prostaglandin receptors (prostaglandin receptors expressed: hDP/Gqs5; hEP1; hEP2/Gqs5; hEP3A/Gqi5; hEP4/Gqs5; hFP; hIP; hTP), were cultured in 100 mm culture dishes in high-glucose DMEM medium containing 10% fetal bovine serum, 2 mM 1-glutamine, 250 μg/ml geneticin (G418) and 200 μg/ml hygromycin B as selection markers, and 100 units/ml penicillin G, 100 μg/ml streptomycin and 0.25 μg/ml amphotericin B.
(§2) Cells were seeded at a density of 5×10^4 cells per well in Biocoat® Poly-D-lysine-coated black-wall, clear-bottom 96-well plates (Becton-Dickinson) and allowed to attach overnight in an incubator at 37° C. Cells were then washed two times with HBSS-HEPES buffer (Hanks Balanced Salt Solution without bicarbonate and phenol red, 20 mM HEPES, pH 7.4) using a Denley Cellwash plate washer (Labsystems). After 45 minutes of dye-loading in the dark, using the calcium-sensitive dye Fluo-4 AM at a final concentration of 2 μM, plates were washed four times with HBSS-HEPES buffer to remove excess dye leaving 100 μl in each well. Plates were re-equilibrated to 37° C. for a few minutes.
(§3) Cells were excited with an Argon laser at 488 nm, and emission was measured through a 510-570 nm bandwidth emission filter (FLIPR™, Molecular Devices, Sunnyvale, Calif.). Drug solution was added in a 50 μl volume to each well to give the desired final concentration. The peak increase in fluorescence intensity was recorded for each well. On each plate, four wells each served as negative (HBSS-HEPES buffer) and positive controls (standard agonists: BW245C (hDP); PGE2 (HEP1; hEP2/Gqs5; hEP3A/Gqi5; hEP4/Gqs5); PGF2α (hFP); carbacyclin (hIP); U-46619 (hTP), depending on receptor). The peak fluorescence change in each drug-containing well was then expressed relative to the controls.
(§4) Compounds were tested in a high-throughput (HTS) or concentration-response (CoRe) format. In the HTS format, forty-four compounds per plate were examined in duplicates at a concentration of 10^−5 M. To generate concentration-response curves, four compounds per plate were tested in duplicates in a concentration range between 10^−5 and 10^−11 M. The duplicate values were averaged. In either, HTS or CoRe format each compound was tested on at least 3 separate plates using cells from different passages to give an n≧3.

hIP = biological target: T2, hIP (Homo sapiens, UniProt P43119); experiment: FLIPR calcium signal, IP; conditions: HEK-293(EBNA)
T2 construct: expressed in transfected cells
T2 sequence (P43119 whole entry): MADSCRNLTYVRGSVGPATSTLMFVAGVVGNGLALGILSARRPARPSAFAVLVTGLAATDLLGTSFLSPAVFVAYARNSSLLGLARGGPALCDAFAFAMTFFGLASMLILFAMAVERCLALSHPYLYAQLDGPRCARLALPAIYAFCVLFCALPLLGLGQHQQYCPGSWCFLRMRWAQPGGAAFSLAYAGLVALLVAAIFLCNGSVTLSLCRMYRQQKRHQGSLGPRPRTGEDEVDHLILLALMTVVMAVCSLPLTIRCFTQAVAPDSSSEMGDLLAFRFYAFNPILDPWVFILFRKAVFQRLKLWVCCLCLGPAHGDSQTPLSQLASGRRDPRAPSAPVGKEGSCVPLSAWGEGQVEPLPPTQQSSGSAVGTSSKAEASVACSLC
Protocol: as §1, §2, §3, §4

hEP4/Gqs5 = biological target: T3, hEP4/Gqs5 (Homo sapiens, UniProt P35408); experiment: FLIPR calcium signal, EP4; conditions: HEK-293(EBNA)
T3 construct: expressed in transfected cells
T3 sequence (P35408 whole entry): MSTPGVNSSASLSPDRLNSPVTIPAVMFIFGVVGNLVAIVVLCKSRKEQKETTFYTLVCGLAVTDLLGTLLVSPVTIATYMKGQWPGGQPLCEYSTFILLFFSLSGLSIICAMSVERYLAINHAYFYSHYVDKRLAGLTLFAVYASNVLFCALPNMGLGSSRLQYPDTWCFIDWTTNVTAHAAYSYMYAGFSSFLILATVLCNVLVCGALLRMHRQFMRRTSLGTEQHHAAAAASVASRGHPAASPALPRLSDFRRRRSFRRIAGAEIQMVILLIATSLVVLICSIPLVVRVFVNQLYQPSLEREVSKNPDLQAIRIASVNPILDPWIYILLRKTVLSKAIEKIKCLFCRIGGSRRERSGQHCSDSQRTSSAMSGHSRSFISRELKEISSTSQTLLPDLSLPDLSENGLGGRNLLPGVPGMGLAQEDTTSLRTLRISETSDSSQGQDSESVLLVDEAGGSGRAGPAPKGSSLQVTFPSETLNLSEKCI
Protocol: as §1, §2, §3, §4

hEP3A/Gqi5 = biological target: T4, hEP3A/Gqi5 (Homo sapiens, UniProt P43115); experiment: FLIPR calcium signal, EP3; conditions: HEK-293(EBNA)
T4 construct: expressed in transfected cells
T4 sequence (P43115 1-390): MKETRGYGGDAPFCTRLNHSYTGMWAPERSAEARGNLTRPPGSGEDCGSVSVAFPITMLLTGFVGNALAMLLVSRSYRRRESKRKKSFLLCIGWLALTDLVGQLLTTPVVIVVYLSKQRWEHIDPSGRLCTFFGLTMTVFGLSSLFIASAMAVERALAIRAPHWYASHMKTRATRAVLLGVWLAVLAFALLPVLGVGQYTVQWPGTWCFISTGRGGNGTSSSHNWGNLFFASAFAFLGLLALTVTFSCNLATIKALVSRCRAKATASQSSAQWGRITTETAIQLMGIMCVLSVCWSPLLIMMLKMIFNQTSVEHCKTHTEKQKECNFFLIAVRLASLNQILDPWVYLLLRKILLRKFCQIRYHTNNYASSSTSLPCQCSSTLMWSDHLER
Protocol: as §1, §2, §3, §4

hFP = biological target: T5, hFP (Homo sapiens, UniProt P43088); experiment: FLIPR calcium signal, FP; conditions: HEK-293(EBNA)
T5 construct: expressed in transfected cells
T5 sequence (P43088 whole entry): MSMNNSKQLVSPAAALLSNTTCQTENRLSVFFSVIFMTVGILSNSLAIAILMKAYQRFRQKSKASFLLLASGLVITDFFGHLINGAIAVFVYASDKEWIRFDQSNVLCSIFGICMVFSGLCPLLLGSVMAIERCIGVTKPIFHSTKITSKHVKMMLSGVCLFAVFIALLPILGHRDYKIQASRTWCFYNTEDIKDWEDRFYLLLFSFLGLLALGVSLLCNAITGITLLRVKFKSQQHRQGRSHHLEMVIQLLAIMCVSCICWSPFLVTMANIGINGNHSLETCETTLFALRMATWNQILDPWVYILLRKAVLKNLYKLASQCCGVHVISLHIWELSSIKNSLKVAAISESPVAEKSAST
Protocol: as §1, §2, §3, §4

hDP/Gqs5 = biological target: T6, hDP/Gqs5 (Homo sapiens, UniProt Q13258); experiment: FLIPR calcium signal, DP; conditions: HEK-293(EBNA)
T6 construct: expressed in transfected cells
T6 sequence (Q13258 1-359): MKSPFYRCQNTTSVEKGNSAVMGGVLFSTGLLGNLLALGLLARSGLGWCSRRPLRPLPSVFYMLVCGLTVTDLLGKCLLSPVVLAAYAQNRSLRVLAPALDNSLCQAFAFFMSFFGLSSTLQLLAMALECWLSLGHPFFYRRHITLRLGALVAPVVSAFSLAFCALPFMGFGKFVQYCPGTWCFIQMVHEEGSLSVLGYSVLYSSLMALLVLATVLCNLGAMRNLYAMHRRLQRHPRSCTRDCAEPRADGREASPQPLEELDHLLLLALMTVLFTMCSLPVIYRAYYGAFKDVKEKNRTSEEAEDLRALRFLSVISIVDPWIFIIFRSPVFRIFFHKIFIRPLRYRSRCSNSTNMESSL
Protocol: as §1, §2, §3, §4

hEP2/Gqs5 = biological target: T7, hEP2/Gqs5 (Homo sapiens, UniProt P43116); experiment: FLIPR calcium signal, EP2; conditions: HEK-293(EBNA), value outside parentheses, read-out: Ca2+ Signal-EC50 (nM) EP2
T7 construct: expressed in transfected cells
T7 sequence (P43116 whole entry): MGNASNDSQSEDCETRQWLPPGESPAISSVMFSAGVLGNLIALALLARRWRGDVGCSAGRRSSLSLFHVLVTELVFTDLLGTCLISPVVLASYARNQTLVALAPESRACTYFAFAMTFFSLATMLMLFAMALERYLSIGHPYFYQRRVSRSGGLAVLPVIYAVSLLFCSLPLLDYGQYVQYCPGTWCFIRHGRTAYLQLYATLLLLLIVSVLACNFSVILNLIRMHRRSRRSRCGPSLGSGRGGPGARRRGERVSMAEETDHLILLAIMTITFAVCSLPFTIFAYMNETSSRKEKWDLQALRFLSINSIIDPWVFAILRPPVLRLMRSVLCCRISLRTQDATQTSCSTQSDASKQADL
Protocol: as §1, §2, §3, §4

hTP = biological target: T8, hTP (Homo sapiens, UniProt P21731); experiment: FLIPR calcium signal, TP; conditions: HEK-293(EBNA)
T8 construct: expressed in transfected cells
T8 sequence (P21731 1-343): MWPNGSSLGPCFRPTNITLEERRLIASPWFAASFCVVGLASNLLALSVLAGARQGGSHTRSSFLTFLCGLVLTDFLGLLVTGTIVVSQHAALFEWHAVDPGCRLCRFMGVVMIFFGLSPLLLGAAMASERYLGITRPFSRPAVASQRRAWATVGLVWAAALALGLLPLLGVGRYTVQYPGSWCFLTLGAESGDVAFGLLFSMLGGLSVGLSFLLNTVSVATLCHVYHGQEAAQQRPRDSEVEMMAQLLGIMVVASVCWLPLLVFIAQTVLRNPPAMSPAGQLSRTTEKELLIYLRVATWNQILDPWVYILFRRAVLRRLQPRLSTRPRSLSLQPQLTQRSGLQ
Protocol: as §1, §2, §3, §4

Ca2+ Signal-EC50 (nM) EP1 (hEP1)	Ca2+ Signal-EC50 (nM) IP (hIP)	Ca2+ Signal-EC50 (nM) EP4 (hEP4/Gqs5)	Ca2+ Signal-EC50 (nM) EP3 (hEP3A/Gqi5)	Ca2+ Signal-EC50 (nM) FP (hFP)	Ca2+ Signal-EC50 (nM) DP (hDP/Gqs5)	EC50 (hEP2/Gqs5) [nM]	Ca2+ Signal-EC50 (nM) TP (hTP)	EC50 (hEP1; read-out: Ca2+ Signal-EC50 (nM) EP1) [nM]	EC50 (hEP3A/Gqi5; read-out: Ca2+ Signal-EC50 (nM) EP3) [nM]	SMILES
not active	not active	not active	not active	not active	not active	3960	not active			CCCCCC(O)c1ccc([C@@H]2[C@@H](C/C=C\CCCC(=O)OC)[C@H](Cl)C[C@H]2O)cc1 (mixture of isomers) [Entry 10, (Z)-7-{(1R,2S,3R,5R)-5-Chloro-3-hydroxy-2-[4-(1-hydroxy-hexyl)-phenyl]-cyclopentyl}-hept-5-enoic acid methyl ester]
	not active	not active		not active	not active	2450	not active	917	4150	CCCCCC(O)c1ccc([C@@H]2[C@@H](CCCc3cccc(C(=O)O)c3)[C@H](Cl)C[C@H]2O)cc1 (stereo partly drawn) [Entry 1, 3-(3-{(1R,2S,3R,5R)-5-Chloro-3-hydroxy-2-[4-(1-hydroxy-hexyl)-phenyl]-cyclopentyl}-propyl)-benzoic acid]
